Earlier results in US20220047541A1, “PHARMACEUTICAL COMPOSITIONS AND METHODS FOR TREATING PARKINSON'S DISEASE” (Pike Therapeutics, Inc., priority 2020, published 2022).

Legend:
CB2 = CB2 (Homo sapiens, UniProt P34972); conditions: given as ×, fold or times
CB2, sequence (P34972 whole entry, species assumed): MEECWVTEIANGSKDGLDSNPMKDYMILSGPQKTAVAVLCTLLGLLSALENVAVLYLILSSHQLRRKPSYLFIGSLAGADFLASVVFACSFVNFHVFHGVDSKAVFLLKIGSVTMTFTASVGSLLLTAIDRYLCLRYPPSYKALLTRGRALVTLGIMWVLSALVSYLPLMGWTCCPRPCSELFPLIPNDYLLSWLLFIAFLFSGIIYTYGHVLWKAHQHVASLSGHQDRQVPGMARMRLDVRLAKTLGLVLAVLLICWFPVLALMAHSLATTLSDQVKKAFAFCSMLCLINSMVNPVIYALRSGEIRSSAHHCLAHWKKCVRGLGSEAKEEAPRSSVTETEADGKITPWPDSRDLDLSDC

| SMILES | solubility in water | selectivity for CB2 over CB1 (CB2) |
| --- | --- | --- |
| N[C@@H](Cc1ccc(O)c(O)c1)C(=O)O [Levodopa, L-3,4-dihydroxyphenylalanine (S)-2-amino-3-(3,4-dihydroxyphenyl)propanoic acid] | slightly soluble |  |
| CCCn1c(C)c(C(=O)c2ccc(C)c3ccccc23)c2ccccc21 [JWH-148] |  | more than 8 fold |
| CCCCCCC(C)(C)c1cc(OC)c2c(c1)OC(C)(C)C1CCC(O)CC21 (stereo not drawn) [JWH-350, 11-nor-1-methoxy-3-(1′,1′-dimethylheptyl)-9α-hydroxyhexahydrocannabinol] |  | 33 fold |
| CCCn1cc(C(=O)c2ccc(C)c3ccccc23)c2ccccc21 [JWH-120] |  | 173 fold |
| CCCCCCC(C)(C)c1cc(O)c2c(c1)oc(=O)c1ccc(OC)cc12 [AM-1710] |  | 54 fold |
